From PubChem BioAssay AID1053164 (Broad Institute, 2014)
“And” between values parts separate entries of the source, which are not always exact repeats. Equal values may be shown once. The source made the active and inactive calls. How the calls were made is not given here.

Target: Dihydrolipoyl dehydrogenase (Mycobacterium tuberculosis (strain ATCC 25618 / H37Rv)) (UniProt P9WHH9)
Assay: Purified Mycobacterium tuberculosis Lpd inhibitors, DTNB colorimetric coupled assay, confirmatory IC50 (AID 1053164)
Conditions: Purified M. tb Lpd, DTNB colorimetric plate reader

Structure (SMILES) | IC50
CO[C@H]1CC[C@H]2CCN(C)C(=O)[C@@H](c3ccccc3)N(C)C(=O)c3cccc(C#N)c3OC[C@@H]1O2 | > 100 µM (inactive)
CO[C@H]1CC[C@H]2CCN(C)C(=O)CCCN(C)C(=O)c3cccc(C#N)c3OC[C@@H]1O2 | > 100 µM (inactive)
CO[C@H]1CC[C@H]2CCN(C)C(=O)CCN(C)C(=O)c3cccc(C#N)c3OC[C@@H]1O2 | > 100 µM (inactive)
CCCC[C@@H]1C(=O)N(C)CC[C@@H]2CC[C@H](OC)[C@H](COc3c(C#N)cccc3C(=O)N1C)O2 | > 100 µM (inactive)
CO[C@H]1CC[C@H]2CC(=O)N(C)CCN(C)C(=O)c3cccc(C#N)c3OC[C@@H]1O2 | > 100 µM (inactive)
CO[C@H]1CC[C@H]2CCN(C)C(=O)[C@H]3CCCN3C(=O)c3cccc(C#N)c3OC[C@@H]1O2 | > 100 µM (inactive)
CO[C@H]1CC[C@H]2CCN(C)C(=O)[C@@H](C)N(C)C(=O)c3ccc(F)nc3OC[C@@H]1O2 | > 100 µM (inactive)
CO[C@H]1CC[C@H]2CCN(C)C(=O)CN(C)C(=O)c3cccc(C#N)c3OC[C@@H]1O2 | > 100 µM (inactive)
CO[C@H]1CC[C@H]2CCN(C)C(=O)[C@@H](C)N(C)C(=O)c3cccnc3OC[C@@H]1O2 | > 100 µM (inactive)
CO[C@H]1CC[C@H]2CCN(C)C(=O)[C@@H](Cc3ccccc3)N(C)C(=O)c3cccc(C#N)c3OC[C@@H]1O2 | > 100 µM (inactive)
CO[C@H]1CC[C@H]2CCN(C)C(=O)[C@@H](C)N(C)C(=O)c3cc(Cl)cnc3OC[C@@H]1O2 | 25 µM
CO[C@H]1CC[C@H]2CCN(C)C(=O)[C@@H](C)N(C)C(=O)c3cccc(C#N)c3OC[C@@H]1O2 | 6 µM and > 100 µM (inactive)
CO[C@H]1CC[C@H]2CCN(C)C(=O)CCCN(C)C(=O)c3cccnc3OC[C@@H]1O2 | > 100 µM (inactive)
CO[C@H]1CC[C@H]2CCN(C)C(=O)CCCN(C)C(=O)c3cc(Cl)cnc3OC[C@@H]1O2 | > 100 µM (inactive)
CO[C@H]1CC[C@H]2CCN(C)C(=O)[C@@H](C(C)C)N(C)C(=O)c3cccc(C#N)c3OC[C@@H]1O2 | > 100 µM (inactive)
CO[C@H]1CC[C@H]2CCN(C)C(=O)[C@@H](C)N(C)C(=O)c3c(C(F)(F)F)ccnc3OC[C@@H]1O2 | > 100 µM (inactive)
